Measured values as given in patent US20120009280A1, “METHOD OF REDUCING THE RATE OF DEGRADATION OF A BIOLOGICAL MATERIAL” (Bio-Energy Ingredients Limited, priority 2009, published 2012).

Key:
yeast = test: Yeast count of spent brewer's / wet distiller's grains stored at ambient temperature; assay type: cell-based
total micro-organism = test: Total microbial (plate) count of spent brewer's / wet distiller's grains stored at ambient temperature; assay type: cell-based
Source text: Samples of spent brewer's grains were drawn from the discharge line of a brewery in South Africa. The samples, packed in dry ice in a cold box, were transported over a distance of approximately 40 kilometres to a laboratory. At the laboratory, the samples were thoroughly mixed and initially split into a first portion (Portion 1) and a second portion (Portion 2). The second portion was about twice the size of the first. Portion 1 was left untreated. Material produced from Portion 1 and Portion 2 is designated below using the code “AR” (as received).
Portion 2 was placed on a clean, standard, laboratory screen deck with 1.4 mm apertures supported from below. As much water as possible was manually squeezed out with a clean flat plastic disc and the sample was then manually remixed after the squeezing. The squeezed material was then split into a third portion (Portion 3) and a fourth portion (Portion 4) of approximately the same size. Material produced from Portion 3 and Portion 4 is designated below using the code “SO” (squeezed).
Portion 4 was added to a high speed kitchen food-shredder and shredded for about two minutes. The shredded material was then returned to the 1.4 mm aperture screen and squeezed again, as described above, and manually remixed again after the second squeezing to produce a shredded and squeezed portion (Portion 5). Material produced from Portion 5 is designated below using the code “SH” (shredded).
Samples of Portion 1 (“AR”), Portion 3 (“SO”) and Portion 5 (“SH”) were then delivered to a microbiological testing facility about 15 kilometres from the treatment laboratory. Each was tested for initial total microbial, yeast and mould counts, respectively.
Separate untreated samples were similarly stored under insect-proof screens at ambient temperature for seven days (as shown in Tables 1 and 2). During the trial period the ambient temperature ranged from 11 to 33 degrees C.
After exposure to the environment for seven days, all of the samples were tested at a South African National Accreditation System (SANAS) approved microbiological testing facility. Each was tested for total micro-organism, yeast and mould counts to determine the affect of the various treatments.
Samples of spent brewer's grains were drawn from the discharge line of a brewery in South Africa.
At the laboratory, the samples were thoroughly mixed and initially split into a first portion (Portion 1) and a second portion (Portion 2). Portion 1 was left untreated. A sample of Portion 1, was delivered immediately to a microbiological testing facility about 15 kilometres away from the treatment laboratory and was tested for initial total microbial, yeast and mould counts, respectively.
Samples from Portion 2 were subjected to treatment with varying amounts of a powdered, commercially-available calcium oxide containing approximately 94% calcium oxide (CaO) as shown in Table 32. The treatments varied from 2.5 to 10% (w/w) calcium oxide addition. The samples were stored in batches (according to the calcium oxide treatment) under insect-proof screens at ambient temperature for fifty six days. […] During the trial period the ambient temperature ranged from 10 to 30 degrees C. As this period was the southern hemisphere spring/early summer, the humidity as well as ambient temperatures varied widely.
Samples from each treatment were drawn every seven days. No further calcium oxide treatment or agitation took place after the initial mix. In each case the entire sample was isolated and delivered to the microbiological testing facility.
(§1) In this trial the same source of wet distiller's grains (again with now partial water removal prior to treatment) was treated.
as §1

`[Ca+2].[OH-].[OH-]` [(CaOH)2 powder] was tested, and the “Yeast Count” value (yeast; dose 3.3% (w/w), week 0) was under 10 cfu/gram, the “Yeast Count” value (yeast; dose 3.3% (w/w), week 1) was under 10 cfu/gram and the “Yeast Count” value (yeast; dose 3.3% (w/w), week 2) was under 10 cfu/gram. The “Yeast Count” value (yeast; dose 3.3% (w/w), week 3) was under 10 cfu/gram, the “Yeast Count” value (yeast; dose 3.3% (w/w), week 4) was under 10 cfu/gram and the “Yeast Count” value (yeast; dose 3.3% (w/w), week 5) was under 10 cfu/gram. For the same molecule, the “Yeast Count” value (yeast; dose 3.3% (w/w), week 6) was under 10 cfu/gram, the “Yeast Count” value (yeast; dose 3.3% (w/w), week 7) was under 10 cfu/gram and the “Yeast Count” value (yeast; dose 6.6% (w/w), week 0) was under 10 cfu/gram. For the same molecule, the “Yeast Count” value (yeast; dose 6.6% (w/w), week 1) was under 10 cfu/gram, the “Yeast Count” value (yeast; dose 6.6% (w/w), week 3) was under 10 cfu/gram and the “Yeast Count” value (yeast; dose 6.6% (w/w), week 4) was under 10 cfu/gram. The “Yeast Count” value (yeast; dose 6.6% (w/w), week 5) was under 10 cfu/gram, the “Yeast Count” value (yeast; dose 6.6% (w/w), week 6) was under 10 cfu/gram and the “Yeast Count” value (yeast; dose 6.6% (w/w), week 7) was under 10 cfu/gram. For the same molecule, the “Yeast Count” value (yeast; dose 6.6% (w/w), week 8) was under 10 cfu/gram, the “Yeast Count” value (yeast; dose 6.6% (w/w), week 9) was under 10 cfu/gram and the Total plate count (total micro-organism; dose 3.3% (w/w), week 0) was 60 cfu/gram. For the same molecule, the Total plate count (total micro-organism; dose 3.3% (w/w), week 1) was 12100 cfu/gram, the Total plate count (total micro-organism; dose 3.3% (w/w), week 4) was 1750 cfu/gram and the Total plate count (total micro-organism; dose 3.3% (w/w), week 5) was 20 cfu/gram. The Total plate count (total micro-organism; dose 3.3% (w/w), week 6) was under 10 cfu/gram, the Total plate count (total micro-organism; dose 3.3% (w/w), week 7) was 101000 cfu/gram and the Total plate count (total micro-organism; dose 3.3% (w/w), week 8) was 3.20E+06 cfu/gram. The Total plate count (total micro-organism; dose 6.6% (w/w), week 0) was 70 cfu/gram, the Total plate count (total micro-organism; dose 6.6% (w/w), week 1) was 50 cfu/gram and the Total plate count (total micro-organism; dose 6.6% (w/w), week 2) was 160 cfu/gram. For the same molecule, the Total plate count (total micro-organism; dose 6.6% (w/w), week 3) was 1550 cfu/gram, the Total plate count (total micro-organism; dose 6.6% (w/w), week 4) was 290 cfu/gram and the Total plate count (total micro-organism; dose 6.6% (w/w), week 5) was under 10 cfu/gram. It also gave a Total plate count (total micro-organism; dose 6.6% (w/w), week 6) of under 10 cfu/gram, a Total plate count (total micro-organism; dose 6.6% (w/w), week 7) of 5000 cfu/gram and a Total plate count (total micro-organism; dose 6.6% (w/w), week 8) of 960000 cfu/gram. It also gave a Total plate count (total micro-organism; dose 6.6% (w/w), week 9) of 1.24E+06 cfu/gram.

`[Ca+2].[O-]CC(O)CO.[O-]CC(O)CO` [Ca-DGO granules] was tested, and the “Yeast Count” value (yeast; dose 10% (w/w), week 0) was under 10 cfu/gram, the “Yeast Count” value (yeast; dose 10% (w/w), week 1) was under 10 cfu/gram and the “Yeast Count” value (yeast; dose 10% (w/w), week 2) was under 10 cfu/gram. For the same molecule, the “Yeast Count” value (yeast; dose 10% (w/w), week 7) was under 10 cfu/gram, the “Yeast Count” value (yeast; dose 10% (w/w), week 8) was under 10 cfu/gram and the “Yeast Count” value (yeast; dose 15% (w/w), week 0) was under 10 cfu/gram. For the same molecule, the “Yeast Count” value (yeast; dose 15% (w/w), week 1) was under 10 cfu/gram, the “Yeast Count” value (yeast; dose 15% (w/w), week 2) was under 10 cfu/gram and the “Yeast Count” value (yeast; dose 15% (w/w), week 3) was under 10 cfu/gram. For the same molecule, the “Yeast Count” value (yeast; dose 15% (w/w), week 4) was under 10 cfu/gram, the “Yeast Count” value (yeast; dose 15% (w/w), week 5) was 30 cfu/gram and the “Yeast Count” value (yeast; dose 15% (w/w), week 6) was under 10 cfu/gram. For the same molecule, the “Yeast Count” value (yeast; dose 15% (w/w), week 7) was under 10 cfu/gram, the “Yeast Count” value (yeast; dose 15% (w/w), week 8) was under 10 cfu/gram and the “Yeast Count” value (yeast; dose 15% (w/w), week 9) was under 10 cfu/gram. The Total plate count (total micro-organism; dose 10% (w/w), week 0) was 80 cfu/gram, the Total plate count (total micro-organism; dose 10% (w/w), week 1) was 510 cfu/gram and the Total plate count (total micro-organism; dose 10% (w/w), week 2) was 3500 cfu/gram. The Total plate count (total micro-organism; dose 10% (w/w), week 4) was 30 cfu/gram, the Total plate count (total micro-organism; dose 10% (w/w), week 6) was 5400 cfu/gram and the Total plate count (total micro-organism; dose 10% (w/w), week 8) was 410000 cfu/gram. For the same molecule, the Total plate count (total micro-organism; dose 10% (w/w), week 9) was 480000 cfu/gram, the Total plate count (total micro-organism; dose 15% (w/w), week 0) was 180 cfu/gram and the Total plate count (total micro-organism; dose 15% (w/w), week 1) was 150 cfu/gram. It also gave a Total plate count (total micro-organism; dose 15% (w/w), week 4) of 70 cfu/gram, a Total plate count (total micro-organism; dose 15% (w/w), week 5) of 650 cfu/gram and a Total plate count (total micro-organism; dose 15% (w/w), week 6) of 120 cfu/gram. For the same molecule, the Total plate count (total micro-organism; dose 15% (w/w), week 7) was 700 cfu/gram, the Total plate count (total micro-organism; dose 15% (w/w), week 8) was 270 cfu/gram and the Total plate count (total micro-organism; dose 15% (w/w), week 9) was 150 cfu/gram.
